# Data published in patent US20050256132A1, “Use of ER selective NF-kB inhibitors for the treatment of sepsis” (priority 2003, published 2005).
# pEC50, pIC50: −log10 of the molar value.
# What was measured:
# ER/IL-6 = assay: Endothelial Cell ER/IL-6 Assay, IL-6 promoter luciferase (Table 2); type: cell-based, human; settings: Homo sapiens, HAECT1, ERα infected HAECT-1 cells, IL-1β; for Emax: read-out: IL6 luc % Efficacy; for pIC50: read-out: IL6 luc IC50
# In short: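 One lysate gave both read-outs: luciferase for ER/IL-6 and A340 rate after CK reagent for CK, with four-parameter logistic IC50/EC50. Cells were HAECT-1 aortic endothelial cells carrying adenoviral human ERα (or none), dosed […] at 34 °C from 2× stocks containing 2 ng/ml IL-1β and IL-6(1250 bp)-Luc adenovirus.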
# CK = assay: Creatine kinase assay in ERα infected HAECT-1 cells (Table 2); type: cell-based, human; settings: Homo sapiens; for pEC50: HAECT1; for Emax: HAECT1, read-out: CK % Efficacy
# Method: T-175 flasks of 100% confluent HAECT-1 cells (immortalized human aortic endothelial cells) were washed with 8 ml of HBSS (HEPES buffered saline solution) and infected for fours hours with 6 ml of a 1:10 dilution of Ad5-wt-hERα virus (an adenovirus transfection vector that mediates CMV promoter driven expression of human ERα) in phenol red free Endothelial Cell Basal medium (Clonetics, San Diego, Calif., Catalog # CC-3129) containing 0.25% bovine serum albumin (EDM-BSA). After four hours, cells were washed with EDM-BSA and incubated overnight in the same medium. Following overnight incubation, cells were washed with EDM-BSA and infected for 2 hours with 6 ml of a 1:10 dilution of Ad5-3x(NFκB).Luc virus (Adenovirus luciferase expression vector driven by three repeats of the MHC NFκb sites 5′ to the thymidine kinase promoter) in EDM-BSA. After two hours, cells were washed and incubated at 34° C. for one hour. Cells were then washed, trypsinized, counted, and resuspended in 95% FBS/5% dimethylsulfoxide at a concentration of […], frozen as 1 or 5 ml aliquots in cryo-vials and stored at −150° C. Control (no ER infection) cells were processed as above without Ad5-wt-hERα virus infection.
# ERα infected HAECT-1 cells or control cells were thawed, diluted 42× in warm EBM-BSA, plated into 96-well plates at 0.1 ml/well and incubated for 4 hours at 34° C. Test compounds were added to the cells at 2× stocks in EBM-BSA containing 2 ng/ml IL-1β Ad6-IL-6(1250 bp).Luc virus and plates were returned to the incubator (34° C.). After […], cells were lysed with 50 μl of Promega Cell Culture Lysis reagenet for about 5 minutes at room temperature on a shaker. After lysing, 15 μl of lysate is transferred to luminometer plates for luciferase determination. Luciferase activity is evaluated using a Perkin Elmer Victor2 1420 multilabel counter. Creatine kinase was determined from the rate of increase in A340 following addition of 100 μl of CK assay reagent (Sigma catalog no. 47-10) to the remainder of the cell lysate.
# For IC50 and EC50 calculations, mean IL-6, luciferase or CK values versus log10 of the compound concentration were fitted to a four parameter logistic equation. The IC50/EC50 value, ‘Hill slope,’ upper and lower limits of the curve were iteratively estimated.
SMILES,melting point,pIC50 (ER/IL-6),pEC50 (CK),Emax (ER/IL-6) [%],Emax (CK) [%]
"COc1ccccc1[C@H](c1cccc2ccccc12)[C@@](C)(C#N)C(=O)N1CCN(c2cccc(Br)c2)CC1 [Example 131, (2S)-3-[4-(3-bromophenyl)piperazin-1-yl]-2-[(S)-(2-methoxyphenyl)(1-naphthyl)methyl]-2-methyl-3-oxopropanenitrile]",180 to 182 °C,7.82,6.67,119,48
"COC[C@@](C#N)(C(=O)OC)[C@@H](c1ccccc1OC)c1cccc2ccccc12 [Example 151, Methyl (2R,3R)-2-cyano-2-(methoxymethyl)-3-(2-methoxyphenyl)-3-(1-naphthyl)propanoate]",175.6 to 177.6 °C,8.26,7.87,141,30
"COC(=O)[C@](C#N)(Cc1cccnc1)[C@@H](c1ccccc1OC)c1cccc2ccccc12 [Example 155, Methyl (2R,3R)-2-cyano-3-(2-methoxyphenyl)-3-(1-naphthyl)-2-(pyridin-3-ylmethyl)propanoate]",193 °C (dec.),8.70,8.22,105,33
"COc1ccccc1[C@H](c1cccc2ccccc12)[C@@](C)(C#N)C(=O)N1CCC(O)(c2ccc(Cl)cc2)CC1 [Example 186, (2S)-3-[4-(4-chlorophenyl)-4-hydroxypiperidin-1-yl]-2-[(S)-(2-methoxyphenyl)(1-naphthyl)methyl]-2-methyl-3-oxopropanenitrile]",202 to 204 °C,5.61,,60,11
"COc1ccccc1[C@H](c1cccc2ccccc12)[C@@](C)(C#N)C(=O)N1CCC(c2c[nH]c3ccccc23)CC1 [Example 187, (2S)-3-[4-(1H-indol-3-yl)piperidin-1-yl]-2-[(S)-(2-methoxyphenyl)(1-naphthyl)methyl]-2-methyl-3-oxopropanenitrile]",267 to 268 °C,7.68,7.30,134,48
"COc1ccccc1[C@H](c1cccc2ccccc12)[C@@](C)(C#N)C(=O)N1CCC(N2CCOCC2)CC1 [Example 203, (2S,3S)-3-(2-methoxyphenyl)-2-methyl-2-[(4-morpholin-4-ylpiperidin-1-yl)carbonyl]-3-(1-naphthyl)propanenitrile]",209 to 210 °C,8.00,,28,-26
"COCC(C#N)(C(=O)N1CCN(CCCN(C)C)CC1)C(c1ccccc1OC)c1cccc2ccccc12 (stereo not shown) [Example 204, 3-{4-[3-(dimethylamino)propyl]piperazin-1-yl}-2-(methoxymethyl)-2-[(2-methoxyphenyl)(1-naphthyl)methyl]-3-oxopropanenitrile]",174 to 175 °C,6.93,,23,-34
"COC[C@](C#N)(C(=O)N1CCN(c2cnccn2)CC1)[C@H](c1ccccc1OC)c1cccc2ccccc12 [Example 223, (2S,3S)-2-(methoxymethyl)-3-(2-methoxyphenyl)-3-(1-naphthyl)-2-[(4-pyrazin-2-ylpiperazin-1-yl)carbonyl]propanenitrile]",149 °C,7.42,6.50,154,24
"COC[C@@](C#N)(C(=O)N1CCN(c2cnccn2)CC1)[C@@H](c1ccccc1OC)c1cccc2ccccc12 [Example 224, (2R,3R)-2-(methoxymethyl)-3-(2-methoxyphenyl)-3-(1-naphthyl)-2-[(4-pyrazin-2-ylpiperazin-1-yl)carbonyl]propanenitrile]",150 °C,6.08,,77,-14

# More lines, main results first:
melting point,pIC50 (ER/IL-6),pEC50 (CK),SMILES,Emax (ER/IL-6) [%],Emax (CK) [%]
227 to 230 °C,6.91,6.53,"COc1ccccc1[C@H](c1cccc2ccccc12)[C@@](C)(C#N)C(=O)N1CCC(N2C(=O)Cc3ccccc32)CC1 [Example 132, (2S,3S)-3-(2-methoxyphenyl)-2-methyl-3-(1-naphthyl)-2-{[4-(2-oxo-2,3-dihydro-1H-indol-1-yl)piperidin-1-yl]carbonyl}propanenitrile]",92,57
135 to 140 °C,7.82,7.47,"COc1ccccc1C1CCN(C(=O)[C@](C)(C#N)[C@H](c2ccccc2OC)c2cccc3ccccc23)CC1 [Example 138, (2S,3S)-3-(2-methoxyphenyl)-2-{[4-(2-methoxyphenyl)piperidin-1-yl]carbonyl}-2-methyl-3-(1-naphthyl)propanenitrile]",131,49
192 to 193.9 °C,5.90,,"COC(=O)C(C)(C#N)C(c1ccccc1OC)c1ccnc2ccccc12 (stereo not shown) [Example 160, Methyl 2-cyano-3-(2-methoxyphenyl)-2-methyl-3-(quinolin-4-yl)propanoate]",82,-10
225 to 228 °C,6.45,,"COc1ccccc1C(c1ccnc2ccccc12)C(C#N)(Cc1cccnc1)C(=O)OC(C)(C)C (stereo not shown) [Example 166, tert-Butyl 2-cyano-3-(2-methoxyphenyl)-2-(pyridin-3-ylmethyl)-3-quinolin-4-ylpropanoate]",77,-13
197 to 200 °C,6.44,6.32,"COc1ccccc1[C@H](c1cccc2ccccc12)[C@@](C)(C#N)C(=O)N1CCC(n2c(=O)[nH]c3ccccc32)CC1 [Example 183, (2S,3S)-3-(2-methoxyphenyl)-2-methyl-3-(1-naphthyl)-2-{[4-(2-oxo-2,3-dihydro-1H-benzimidazol-1-yl)piperidin-1-yl]carbonyl}propanenitrile]",196,63
153 to 154 °C,7.36,6.38,"COc1ccccc1[C@H](c1cccc2ccccc12)[C@@](C)(C#N)C(=O)N1CCN(c2ncccn2)CC1 [Example 192, (2S,3S)-3-(2-methoxyphenyl)-2-methyl-3-(1-naphthyl)-2-[(4-pyrimidin-2-ylpiperazin-1-yl)carbonyl]propanenitrile]",176,
140 to 141 °C,5.40,,"COCCN1CCN(C(=O)C(C#N)(COCc2ccccc2)C(c2ccccc2OC)c2cccc3ccccc23)CC1 (stereo not shown) [Example 207, 2-[(benzyloxy)methyl]-3-[4-(2-methoxyethyl)piperazin-1-yl]-2-[(2-methoxyphenyl)(1-naphthyl)methyl]-3-oxopropanenitrile]",63,-16
143 to 144 °C,6.56,,"COc1ccccc1[C@H](c1cccc2ccccc12)[C@@](C)(C#N)C(=O)N1CCN(c2cnccn2)CC1 [Example 214, (2S,3S)-3-(2-methoxyphenyl)-2-methyl-3-(1-naphthyl)-2-[(4-pyrazin-2-ylpiperazin-1-yl)carbonyl]propanenitrile]",136,12
84 to 85 °C,,,"COc1ccccc1[C@H](c1cccc2ccccc12)[C@@](C)(C#N)C(=O)N1CCN(CCN(C)C)CC1 [Example 216, (2S)-3-{4-[2-(dimethylamino)ethyl]piperazin-1-yl}-2-[(S)-(2-methoxyphenyl)(1-naphthyl)methyl]-2-methyl-3-oxopropanenitrile]",51,-21
